Source: patent US7786258B2, “Methods for inhibiting immune complex formation in a subject” (Trinity Therapeutics, Inc., priority 2004, dated 2010)
Where two headings read alike, the source gives them in different places. Positions of bridges follow the written chain, without caps; N, C: chain ends. Residues, ends and D or L forms follow the SMILES beside them. No end group written: not given here.

Legend:
histone = test: Inhibition of histone binding: PAP immune complexes on histone-coated plates (Example 3); conditions: rabbit PAP pre-incubated with peptides or histone one hour; (+) control buffer only 1.268
Protocol: Inhibition of histone binding: The binding of immune complexes to the kidneys in lupus nephritis appears to involve (a) the binding of histones to the GBM, and then (b) the binding of immune complexes (through the IgG Fc CH2-CH3 cleft) to the bound histones. Experiments similar to those described above were used to inhibit binding of purified histone to IgG Fc binding. Histone (Sigma) was diluted 1:10 in coating buffer (Alpha Diagnostic International) and incubated on Falcon microtiter plates for 24 hours. Plates were blocked with 5× BSA blocking solution (Alpha Diagnostic International) for 24 hours. Freshly prepared 1:10 rabbit PAP (Sigma) was pre-incubated with either peptides or histone for one hour, and 100 μl of the mixture was added to the histone-coated plates for one hour. Plates were incubated with ABTS substrate (Quidel Corp.) for 45 minutes, and OD 405 was read.

MBP = conditions: rabbit PAP pre-incubated with peptide or MBP 30 minutes; (+) control buffer only 1.033
Protocol: Inhibition of MBP binding: MBP (Sigma) was diluted 1:10 with coating buffer (Alpha Diagnostic International) and incubated for 24 hours on Falcon microtiter plates. Plates were washed and then blocked with 5× BSA blocking buffer (Alpha Diagnostic International) for 24 hours. Rabbit 1:10 PAP immune complexes were pre-incubated with equal amounts of peptide or MBP for 30 minutes. One hundred μl of PAP immune complexes/peptide or PAP/MBP was then added to the MBP-coated plates and incubated for one hour. The plates were washed and incubated with TMB substrate (Alpha Diagnostic International) for 30 minutes. After adding stop solution (Alpha Diagnostic International), the plates were read at 450 nm.
Further experiments were conducted to determine the effect of SEQ ID NO:47 (also referred to as NB-406) on binding of MBP to IgG PAP immune complexes.

FcγIIa = test: Inhibition of FcR binding: reverse ELISA, PAP immune complexes on FcγIIa coated plates (Example 3); conditions: plates read at 450 nm, (+) control PAP with no peptide 3.600
Protocol: (§1) Inhibition of FcR binding: Once the reverse ELISA protocol was established using the C1q assay, the assay was redesigned using FcγIIa, FcγIIb and FcγIII in place of C1q. Highly purified FcγIIa, FcγIIb and FcγIII were immunoadsorbed onto plastic microwells. After optimizing the FcγR reverse ELISA system, simple competitive inhibition experiments using polypeptides of the invention were conducted to investigate their ability to inhibit binding of immune complexes to purified FcγR.
(§2) Falcon microtiter plates were coated with 1:10 dilutions of highly purified FcγIIa, FcγIIb and FcγIII and incubated for 24 hours. […] Equal amounts (50 μl) of peptide and 1:10 PAP immune complexes were pre-incubated for one hour and then incubated on the FcR coated plates for one hour. […] Stop solution (10 μl) was added and the plates were read at 450 nm.

human monomeric IgG = test: Inhibition of rheumatoid factor binding to monomeric IgG (Example 4); conditions: peptides pre-incubated 30 minutes with monomeric IgG, then 200 I.U. RF; (+) control buffer only 1.376
Protocol: The ability of the peptides to inhibit the binding of rheumatoid factor to monomeric IgG was tested. Binding to monomeric IgG may be important, as it may increase the half-life of particular peptides and allow them to be more bioactive.
A standard rheumatoid factor commercial test was used (Research Diagnostics) with the following modifications: 100 μl of test peptides were pre-incubated for 30 minutes with human monomeric IgG (Research Diagnostics). Plates were washed and incubated with 200 I.U. rheumatoid factor positive control supplied with the test kit. The rest of the test was performed according to the manufacturer's instructions.

FcγIIb = test: Inhibition of FcR binding: reverse ELISA, PAP immune complexes on FcγIIb coated plates (Example 3); conditions: plates read at 450 nm, (+) control PAP with no peptide 3.600
Protocol: as §1, §2

polyclonal IgM RF = test: Inhibition of RF binding: PAP immune complexes on rheumatoid factor coated plates (Example 3); conditions: for OD 405 nm: PAP pre-incubated 30 minutes with peptides or RF, (+) control PAP with no peptide 0.753; for inhibition of RF binding to immune complexes, in words: Table 3
Protocol: Inhibition of RF binding: The assay to test inhibition of RF binding to the IgG Fc CH2-CH3 clefts was very similar to the C1q-CIC EIA assay described above, with the exception that polyclonal IgM RF was coated onto the microwells instead of C1q. […] High titer, RF positive sera were purchased from Research Diagnostics (Flanders, N.J.).
A 1:10 dilution of 200 μl of 200 I.U. rheumatoid factor (RF) (+) control (positive standard provided by Research Diagnostics was coated onto Falcon microtiter plates and incubated for 24 hours. The plates were blocked with 1:5 BSA blocking buffer (Alpha Diagnostic International) for one hour. Freshly prepared 1:10PAP (antigen:antibody) immune complexes were pre-incubated for 30 minutes with peptides or RF (positive control containing only buffer). After washing, plates were incubated with ABTS substrate (Research Diagnostics) for 30 minutes and then read at 405 nm. Results are shown in Table 3.

FcγIII = test: Inhibition of FcR binding: reverse ELISA, PAP immune complexes on FcγIII coated plates (Example 3); conditions: plates read at 450 nm, (+) control PAP with no peptide 3.600
Protocol: as §1, §2

whole human IgG4 = test: Inhibition of Fc:Fc interactions: immune complexes on IgG4 coated microwells (Example 3); type: binding; conditions: for OD 405 nm: IgG4 coated microwells, positive control (buffer) 0.716
From the text: Inhibition of Fc:Fc interactions: The Fc region of IgG4 interacts in an Fc to Fc fashion with immune complexed IgG. Purified IgG4 is used with polypeptides of the invention to examine inhibition of immune complex formation and Fc:Fc interactions. Chemical modification of His435, a critical IgG Fc amino acid bound by polypeptides of the invention, is known to inhibit Fc:Fc interactions.

C1q = test: Inhibition of C1q binding: reverse ELISA, PAP immune complexes on C1q coated plates (Example 3); design: species or system human; conditions: for OD 405 nm: peptide or C1q pre-incubated with PAP 30 minutes, (+) control PAP with no peptide 0.467, lower OD = more inhibition
From the text: For this reason, a “reverse ELISA” technique is used to assess binding of the Fc region to ligands that bind to immune complexed IgG Fc. In a reverse ELISA, the enzyme (e.g., HRP) is not covalently conjugated to the Fc portion of the secondary antibody. Rather, a preformed immune complex of peroxidase-rabbit (or mouse) anti-peroxidase IgG (“PAP” complex) is used. […] In the absence of competitor, PAP complexes bind to the immobilized ligand and the reaction between HRP and its substrate produces a signal. This signal is reduced by polypeptides and compounds of the invention that inhibit PAP binding to the immobilized ligand.
Inhibition of C1q binding: Twenty μl of peroxidase (P) (Sigma) was diluted in 2 ml of sample diluent (Quidel Corp, San Diego, Calif.). Twenty μl of anti-peroxidase (AP) (Sigma) was diluted in 2 ml of sample diluent, and 20 μl of the diluted AP was added to the diluted P (1:100 antigen:antibody ratio) to form peroxidase-anti-peroxidase (PAP) complexes. The extreme antigen excess guaranteed that any single antibody would be bound to two peroxidase molecules and larger immune complexes would not form, thus preventing the bridging of larger immune complexes to multimeric C1q (heximeric). One hundred μl of peptide or C1q was pre-incubated with freshly prepared PAP for 30 minutes, added to C1q coated plates (Quidel Corp.), and incubated for one hour. After washing, ABTS substrate (Quidel Corp.) was added to the plates and incubated for 30 minutes, and the plates were read at 405 nm. All peptides were cyclized by forming a disulfide bond between the two cysteine residues.

[1] = test system: DBA/1J mice with collagen-induced arthritis
[2] = 10 mg/kg, versus diseased control

Sequence of whole human IgG4 (P01861 99-327 isoform P01861-1 limits assumed): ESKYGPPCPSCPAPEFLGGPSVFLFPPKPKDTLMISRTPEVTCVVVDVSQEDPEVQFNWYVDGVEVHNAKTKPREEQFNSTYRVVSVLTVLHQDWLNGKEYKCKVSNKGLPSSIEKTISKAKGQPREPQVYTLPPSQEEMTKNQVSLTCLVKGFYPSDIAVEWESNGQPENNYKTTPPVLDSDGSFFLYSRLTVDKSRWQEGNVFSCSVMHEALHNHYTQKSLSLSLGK

Compound	OD 405 nm (histone)	OD 405 nm (MBP)	PAP immune complex binding (OD at 450 nm) (FcγIIa)	OD 405 nm (human monomeric IgG)	OD at 450 nm (PAP binding to FcγIIb) (FcγIIb)	OD 405 nm (polyclonal IgM RF)	OD 450 nm (PAP immune complex binding) (FcγIII)	OD 405 nm (whole human IgG4)	OD 405 nm (C1q)	also measured
DCAWHLGELAACT (disulfide 2-12 (inferred)) [peptide substituted with alanine at positions 10 and 11]	0.729	0.706	1.484	1.397	1.067	0.622	1.345	0.557	–	–
DCARHLGELVWCT (disulfide 2-12 (inferred))	0.363	0.473	2.539	1.231	1.952	0.109	2.529	0.096	0.193	inhibition of RF binding to immune complexes, in words (polyclonal IgM RF): very effective inhibition; inhibition of Fc:Fc binding, in words (whole human IgG4; text on Table 8): strongest inhibition
REMICADE: REMICADE® was obtained from Centocor (Malvern, Pa.)	–	–	–	–	–	–	–	–	–	effect on arthritic symptoms, in words ([1]; 10 mg/kg): no effect; effect on histological symptoms of arthritis, in words ([1]; 10 mg/kg): no effect; Arthritic Index ([1]; 10 mg/kg subcutaneously daily, average over final three days of treatment, diseased control 3.8): 3.8; Histological Evaluation ([1]; 10 mg/kg, hindlimbs, day 48, diseased control 45): 45; Arthritic Index Percent Change [1, 2]: 0%; Histological Evaluation Percent Change [1, 2]: 0%; adverse reactions at injection sites ([1]; mouse, in vivo, sc): no adverse reactions were observed
CC(C)C[C@@H]1NC(=O)[C@H](Cc2c[nH]cn2)NC(=O)[C@H](CCCNC(=N)N)NC(=O)[C@H](C)NC(=O)[C@@H](NC(=O)[C@@H]2CCCN2C(=O)[C@@H]2CCCN2C(=O)[C@H](C)N)CSSC[C@@H](C(=O)N[C@H](C(=O)O)[C@@H](C)O)NC(=O)[C@H](Cc2c[nH]c3ccccc23)NC(=O)[C@H](C(C)C)NC(=O)[C@H](CC(C)C)NC(=O)[C@H](CCC(=O)O)NC(=O)CNC1=O (HELM PEPTIDE1{A.P.P.C.A.R.H.L.G.E.L.V.W.C.T}$PEPTIDE1,PEPTIDE1,4:R3-14:R3$$$V2.0)	–	–	–	–	–	–	–	–	–	adverse reactions at injection sites ([1]; mouse, in vivo, sc): no adverse reactions were observed
DCAAHLGELAACT (disulfide 2-12 (inferred))	–	–	2.434	1.421	2.263	–	2.413	–	0.458	inhibition of immune complex binding to solid phase C1q, in words (C1q; Table 1): not significantly different from the positive control
RCARHLGELVWCT (disulfide 2-12 (inferred))	0.359	0.569	3.398	1.314	3.284	0.152	3.502	0.191	0.247	–
APPDCARHLGELVWCT (Synthetically generated polypeptide)	–	–	–	–	–	–	–	0.107	–	–
CC(C)C[C@@H]1NC(=O)[C@H](Cc2c[nH]cn2)NC(=O)[C@H](Cc2c[nH]c3ccccc23)NC(=O)[C@H](C)NC(=O)[C@@H](NC(=O)[C@@H](N)CC(=O)O)CSSC[C@@H](C(=O)N[C@H](C(=O)O)[C@@H](C)O)NC(=O)[C@H](Cc2c[nH]c3ccccc23)NC(=O)[C@H](C(C)C)NC(=O)[C@H](CC(C)C)NC(=O)[C@H](CCC(=O)O)NC(=O)CNC1=O	–	–	–	–	–	–	–	–	–	adverse reactions at injection sites ([1]; daily subcutaneous injections day 32 to day 47, all doses, injection sites examined daily): no adverse reactions were observed; maximum inhibition of arthritic symptoms ([1]; mouse, in vivo): 37%
PCARHLGELVWCT (disulfide 2-12 (inferred))	0.444	0.489	1.149	1.323	1.211	0.106	1.602	0.129	0.205	inhibition of RF binding to immune complexes, in words (polyclonal IgM RF): very effective inhibition
